Laboratory results as given in PubChem BioAssay AID1963846 (Molecular Pharmacology Branch, DTP, NCI, 2024).
Values joined by “and” are separate entries in the source; they are usually repeats but may differ in a detail not shown here. Identical values can stand only once.

Tested on: 454973-116-R2-J3-PDC complex spheroid viability
Experiment: Anticancer human tumor 454973-116-R2-J3-PDC patient-derived pancreatic carcinoma cell line growth inhibition [POLQ]
Details: for viability, T/C: stronger effect = lower value
Description: Multicellular complex tumor spheroid response to Polymerase (POL) inhibitors (novobiocin, ART-558, RP6685) in combination with a variety of drugs and investigational agents in selected tumor cell lines
The POL inhibitors (novobiocin, ART-558, and RP6685) were evaluated both individually and in combination with standard of care and investigational anticancer small molecules within a complex spheroid model of solid tumors. . Complex spheroids include a stromal component modeled by human endothelial cells (HUVEC) and fibroblasts modeled by human mesenchymal stem cells (MSCs). The concentration ranges selected for each drug and investigational agent were based upon clinically achievable concentrations if the clinical Cmax of the agent was known.
Compounds. The drugs and investigational agents: novobiocin (NSC847541), ART-558 (NSC835418), RP-6685 (NSC848927), peposertib (NSC802822), ceralasertib (NSC780249), elimusertib (NSC800525), camonsertib (NSC841442), AZD-1390 (NSC803789), olaparib (NSC753686), talazoparib (NSC767125), rucaparib (NSC756644), sotorasib (NSC818433), MRTX-1133 (NSC836407), SN-38 (NSC673596), topotecan (NSC609699), epotoside (NSC141540), doxorubicin (NSC123127), gemcitabine (NSC613327), 5-fluorouracil (NSC19893), paclitaxel (NSC125973), vemurafenib (NSC761431), MSA-2 (NSC828583), SN-011 (NSC837082), adavosertib (NSC754352), prexasertib (NSC758257), carboplatin (NSC241240) and oxaliplatin (NSC266046), were obtained from the National Cancer Institute (NCI) Developmental Therapeutics Program Chemical Repository (21). The FDA-approved anticancer drug set is available from the Developmental Therapeutics Program at https://dtp.cancer.gov/organization/dscb/obtaining/. […] The stock solutions were prepared in dimethyl sulfoxide (DMSO, Sigma-Aldrich, St. Louis, MO, cat. D2650), except for the platinum compounds which were prepared in saline (Quality Biological, Gaithersburg, MD, cat. 114-055-101), at 800-fold the tested concentration and stored at -70 degrees C prior to their use. All drugs and investigational agents were tested over a range starting from a high concentration at or near the clinical Cmax and decreasing in half-log increments. If the clinical Cmax for an agent had not been determined, the highest concentration tested was 10 microM, except for SN-38, which was tested at a high concentration of 1 microM.
Cell Culture. All cells were maintained in an incubator at 37 degrees C and 5% CO2 with 95% humidity. The PDC lines were cultured according to standard operating procedures established by the NCI PDMR (https://pdmr.cancer.gov). Table 3 of the manuscript, lists the cell lines along with the number of the three cell types plated to form the mct-spheroids and media for tumor cell growth. After thawing, all PDC lines, except 997537-175-T-J1-PDC and 415267-285-R-J2-PDC, were cultured in Matrigel-coated flasks prepared with a working solution of 1X Ham's F-12 nutrient mix, without supplementation (Thermo Fisher Scientific, cat. 11765054), 100 U/mL penicillin-streptomycin (Thermo Fisher Scientific, cat. 15140122), and 2.5% Matrigel (Corning Inc., Corning, NY, cat. 354248) for the first three passages. The two PDC lines 997537-175-T-J1-PDC and 415267-285-R-J2-PDC were cultured on uncoated flasks. The 857933-349-R-J2-PDC line was cultured in 6C/Colon 1B media containing advanced DMEM/F-12 (Thermo Fisher Scientific, cat. 12634028), 10 mM HEPES (Thermo Fisher Scientific, cat. 15630080), 1X GlutaMAX supplement (Thermo Fisher Scientific, cat. 35050061), 0.1 mg/mL primocin (InvivoGen, San Diego, CA, cat. ant-pm-2), 10% defined fetal bovine serum, heat inactivated (HyClone Laboratories Inc., Logan, UT, cat. SH30070.03HI), 50% L-WRN conditioned media (ATCC, cat. CRL-3276), 1.25 mM N-Acetyl-L-cysteine (Sigma-Aldrich, cat. A9165), 10 mM nicotinamide (Sigma-Aldrich, cat. N0636), 1X B-27 supplement (Thermo Fisher Scientific, cat. 17504044), 1X N-2 supplement (Thermo Fisher Scientific, cat. […]
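Further: spheroids exposed to drugs for seven days before measurement.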
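Wherever viability, T/C is given: percent viability relative to DMSO vehicle control wells taken as 100%.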

`CC1COCCN1c1cc(C2(S(C)(=N)=O)CC2)nc(-c2ccnc3[nH]ccc23)n1` (centres undefined) was tested, and the viability, T/C (compound 0.0316 µM) was 112% and 105% and 108%, the viability, T/C (compound 0.1 µM) was 105% and 106% and 102% and the viability, T/C (compound 0.316 µM) was 108% and 109% and 103%. The viability, T/C (compound 1 µM) was 100% and 95.8% and 92%, the viability, T/C (compound 3.16 µM) was 79.7% and 65.6% and 90.4% and the viability, T/C (compound 10 µM) was 32.3% and 23.4% and 33.7%. For the same molecule, the IC50 (curve of compound) was 6520 nM and 4820 nM and 7120 nM.

In the case of `O=c1[nH]cc(F)c(=O)[nH]1` + Nc1ccc(C#CCN(C(=O)Cc2ncc(C(F)(F)F)cc2C(F)(F)F)c2ccc(F)cc2)nn1, the IC50 (curve of first compound, second compound 0.0316 µM) is reported as 1730 nM, the IC50 (curve of first compound, second compound 0.1 µM) is reported as 1740 nM and the IC50 (curve of first compound, second compound 0.316 µM) is reported as 1850 nM. The IC50 (curve of first compound, second compound 1 µM) was 1310 nM, the IC50 (curve of first compound, second compound 3.16 µM) was 1550 nM and the IC50 (curve of first compound, second compound 10 µM) was 1550 nM. The viability, T/C (second compound 0.0316 µM, first compound 0.0316 µM) was 108%, the viability, T/C (second compound 0.0316 µM, first compound 0.1 µM) was 116% and the viability, T/C (second compound 0.0316 µM, first compound 0.316 µM) was 102%. The viability, T/C (second compound 0.0316 µM, first compound 1 µM) was 67%, the viability, T/C (second compound 0.0316 µM, first compound 3.16 µM) was 28.6% and the viability, T/C (second compound 0.0316 µM, first compound 10 µM) was 33.2%. It also gave a viability, T/C (second compound 0.1 µM, first compound 0.0316 µM) of 105%, a viability, T/C (second compound 0.1 µM, first compound 0.1 µM) of 103% and a viability, T/C (second compound 0.1 µM, first compound 0.316 µM) of 97.4%. It also gave a viability, T/C (second compound 0.1 µM, first compound 1 µM) of 69.2%, a viability, T/C (second compound 0.1 µM, first compound 3.16 µM) of 27.2% and a viability, T/C (second compound 0.1 µM, first compound 10 µM) of 30.2%. The viability, T/C (second compound 0.316 µM, first compound 0.0316 µM) was 107%, the viability, T/C (second compound 0.316 µM, first compound 0.1 µM) was 106% and the viability, T/C (second compound 0.316 µM, first compound 0.316 µM) was 103%. The viability, T/C (second compound 0.316 µM, first compound 1 µM) was 71%, the viability, T/C (second compound 0.316 µM, first compound 3.16 µM) was 29.2% and the viability, T/C (second compound 0.316 µM, first compound 10 µM) was 33.9%. It also gave a viability, T/C (second compound 1 µM, first compound 0.0316 µM) of 108%, a viability, T/C (second compound 1 µM, first compound 0.1 µM) of 102% and a viability, T/C (second compound 1 µM, first compound 0.316 µM) of 109%. The viability, T/C (second compound 1 µM, first compound 1 µM) was 56.1%, the viability, T/C (second compound 1 µM, first compound 3.16 µM) was 28.1% and the viability, T/C (second compound 1 µM, first compound 10 µM) was 32.1%. For the same molecule, the viability, T/C (second compound 3.16 µM, first compound 0.0316 µM) was 120%, the viability, T/C (second compound 3.16 µM, first compound 0.1 µM) was 117% and the viability, T/C (second compound 3.16 µM, first compound 0.316 µM) was 106%. It also gave a viability, T/C (second compound 3.16 µM, first compound 1 µM) of 63.5%, a viability, T/C (second compound 3.16 µM, first compound 3.16 µM) of 25.4% and a viability, T/C (second compound 3.16 µM, first compound 10 µM) of 32.5%. The viability, T/C (second compound 10 µM, first compound 0.0316 µM) was 119%, the viability, T/C (second compound 10 µM, first compound 0.1 µM) was 118% and the viability, T/C (second compound 10 µM, first compound 0.316 µM) was 115%. It also gave a viability, T/C (second compound 10 µM, first compound 1 µM) of 63.7%, a viability, T/C (second compound 10 µM, first compound 3.16 µM) of 24.3% and a viability, T/C (second compound 10 µM, first compound 10 µM) of 31.1%.

`CNCc1ccc(-c2[nH]c3cc(F)cc4c3c2CCNC4=O)cc1` was tested, and the viability, T/C (compound 0.0316 µM) was 103% and 105% and 99%, the viability, T/C (compound 0.1 µM) was 91.9% and 102% and 93% and the viability, T/C (compound 0.316 µM) was 97% and 98.4% and 112%. The viability, T/C (compound 1 µM) was 100% and 106% and 97.7%, the viability, T/C (compound 3.16 µM) was 111% and 101% and 102% and the viability, T/C (compound 10 µM) was 81.6% and 96.5% and 83.7%. For the same molecule, the IC50 (curve of compound) was > 10000 nM.

`Cc1cccc(N(C)C(=O)C2C(O)CCN2c2nc(C)cc(C(F)(F)F)c2C#N)c1` (centres undefined) was tested, and the viability, T/C (compound 0.0316 µM) was 106% [middle of 13 runs], the viability, T/C (compound 0.1 µM) was 108% [middle of 13 runs] and the viability, T/C (compound 0.316 µM) was 107% [middle of 13 runs]. The viability, T/C (compound 1 µM) was 100% [middle of 13 runs], the viability, T/C (compound 3.16 µM) was 104% [middle of 13 runs] and the viability, T/C (compound 10 µM) was 107% [middle of 13 runs]. For the same molecule, the IC50 (compound alone, run of 10/31/2023) was > 10000 nM and the IC50 (compound alone, run of 11/06/2023) was > 10000 nM.
